Tests used:
PC-3 cells = assay: Cell death of sub-confluent PC-3 cells (adherent cell counting); format: cell-based, human
Procedure: The PC-3 and DU-145 cells (1×10^5/in 1 ml of a culture fluid per hole using a 24-hole plate) were cultured in a DMEM culture fluid (containing 10% of FBS, 1% of P/S, and 1% of fungizone) under 5% of CO2, at 37° C., for three days, and when the cells reached sub-confluence, the culture fluid was exchanged for the one containing the DHMBA (0.01, 0.1, 1, 10, 100, or 1000 μM), and the cells were cultured for 24 and 48 hours. After the culture, the cells adhering to the bottom surface of the dish were removed and counted. In another experiment, after the culture for three days, when the cells reached sub-confluence, the culture fluid was exchanged for a culture fluid containing the DHMBA (1 or 10 μM) and a caspase-3 inhibitor (10 μM), and the cells were counted after the culture for 48 hours. Further, after the culture for three days, when the cells reached sub-confluence, the culture fluid was exchanged for a culture fluid obtained by adding gemcitabine (0.1, 1, 10, 50 or 100 nM) or CH223191 (1, 10, and 25 μM) to a DMEM culture fluid containing the DHMBA (1 or 10 μM) or not containing the DHMBA, and the cells were counted after the culture for 48 hours.
After the culture of the cells, 0.1 ml of 0.05% trypsin-EDTA solution obtained by dissolving the cells adhering to the bottom surface of the culture dish in PBS (Thermo Fisher Scientific, Waltham, MA, USA) not containing Ca^2+/Mg^2+ was added, incubation was performed at 37° C. for two minutes to release the adhering cells, and 0.9 ml of the DMEM culture fluid containing 10% of FBS and 1% of P/S was added to stop the reaction. The visible cells were counted by the Olympus MTV-3 microscope using a hemocytometer (Sigma-Aldrich).
(§1) In the drawing, the PC-3 (FIGS. 5(A) and 5(B)) and DU-145 (FIGS. 5(D) and 5(E)) cells (1×10^5/in 1 ml of a culture fluid per hole using a 24-hole plate) were cultured under 5% of CO2, at 37° C., for three days in a DMEM culture fluid (containing 10% of FBS, 1% of P/S, and 1% of fungizone), and when the cells reached sub-confluence, the culture fluid was exchanged for the one containing the DHMBA (0.01, 0.1, 1, 10, 100, or 1000 μM), and the cells were cultured for 24 and 48 hours. In the drawing, after the culture, the cells adhering to the dish were counted.
In another experiment, after the culture for three days, when the cells reached sub-confluence, for the PC-3 (FIG. 5(C)) or DU-145 (FIG. 5(F)) cells, the culture fluid was exchanged for a culture fluid containing the DHMBA (1 or 10 μM) and a caspase-3 inhibitor (10 μM), and the cells were counted after the culture for 48 hours. Further, after the culture for three days, when the cells reached sub-confluence, the culture fluid was exchanged for a culture fluid obtained by adding gemcitabine (0.1, 1, 10, 50 or 100 nM) or CH223191 (1, 10, and 25 μM) to a DMEM culture fluid containing the DHMBA (1 or 10 μM) or not containing the DHMBA, and the cells were counted after the culture for 48 hours. After the culture, the cells adhered to the dish were removed and counted. Each piece of data is shown with a mean value and a standard deviation of values obtained from eight wells of the different cultured cells. *p<0.001, comparison with the control (gray bar). 1-way ANOVA, Tukey-Kramer post-test.
as §1, with “The” for “In the drawing, the”, “PC-3” for “PC-3 (FIGS. 5(A) and 5(B)) and DU-145 (FIGS. 5(D) and 5(E))”, “gemcitabine (1,” for “DHMBA (0.01, 0.1, 1,”, “10, 50,” for “10,”, “250 nM),” for “1000 μM),”, “for” for “for 24 and”
After the culture for three days, when the cells reached sub-confluence, the culture fluid was exchanged for a culture fluid containing the DHMBA (1 or 10 μM) and gemcitabine (1, 10, or 100 nM), and the cells were counted after the culture for 48 hours. […]

DU-145 cells = assay: Cell migration scratch assay, DU-145 cells; format: cell-based, human; conditions: DHMBA 1, 10, 100, or 1000 μM, 48 hours
Procedure: The migration of the prostate cancer PC-3 and DU-145 cells was examined using a scratch assay. The PC-3 and DU-145 cells (the cell number of 2×10^5/in 1 ml of a culture fluid per hole using a 24-hole plate) were cultured in a DMEM culture fluid containing 10% of FBS, 1% of P/S, and 1% of fungizone under 5% of CO2, at 37° C., for 48 hours, and a straight line scratch was performed using a pipette tip (200 μl) when the cells reached confluence. Free cells were washed with PBS to be removed, the above-described culture fluid (containing 0.1, 1, 10, 100, or 1000 μM of the DHMBA) was added, and the cells were cultured for 48 hours. After the culture, intervals of cell-free parts were measured.
The PC-3 and DU-145 cells (the cell number of 2× 10^5/1 ml of a culture fluid per hole using a 24-hole plate) were cultured under 5% of CO2, at 37° C., for 48 hours in a DMEM culture fluid containing 10% of FBS, 1% of P/S, and 1% of fungizone, and a straight line scratch was performed using a pipette tip (200 μl) when the cells reached confluence. Free cells were washed with PBS to be removed, the above-described culture fluid (containing 0.1, 1, 10, 100, or 1000 μM of the DHMBA) was added, and the cells were cultured for 48 hours. After the culture, intervals of cell-free parts were measured. […]

## COc1c(O)cc(CO)cc1O [DHMBA, 3,5-dihydroxy-4-methoxybenzyl alcohol]
PC-3 cells; DHMBA 10 μM with CH223191 1, 10, or 25 μM, 48 hours
  cell death inducing effect of DHMBA in the presence of CH223191: found not to be expressed
PC-3 cells; DHMBA 1, 10, 100, or 1000 μM, 24 and 48 hours
  cell death: significantly increased
PC-3 cells; DHMBA 1 and 10 μM, 48 hours
  cell death inducing action of DHMBA in the presence of gemcitabine 1 or 10 nM: did not occur
  cell death inducing effect of DHMBA in the coexistence of gemcitabine 100 nM: significantly enhanced
PC-3 cells; DHMBA 1 or 10 μM with caspase-3 inhibitor 10 μM, 48 hours
  increase of cell death in the presence of caspase-3 inhibitor: not caused
DU-145 cells
  migration: significantly inhibited

Source: patent publication US20240350430A1, “GROWTH INHIBITOR OF METASTATIC HUMAN PROSTATE CANCER CELLS” (Watanabe Oyster Laboratory Co., Ltd., priority 2021, published 2024)
